Earlier results in US6849617B2, “Tissue factor antagonists and methods of use thereof” (Sunol Molecular Corporation, priority 1999, dated 2005).

Target: tissue factor (TF) (Homo sapiens, UniProt P13726)
Settings: as disclosed in U.S. application Ser. No. 09/406269

Chain of tissue factor (TF) (P13726 33-295): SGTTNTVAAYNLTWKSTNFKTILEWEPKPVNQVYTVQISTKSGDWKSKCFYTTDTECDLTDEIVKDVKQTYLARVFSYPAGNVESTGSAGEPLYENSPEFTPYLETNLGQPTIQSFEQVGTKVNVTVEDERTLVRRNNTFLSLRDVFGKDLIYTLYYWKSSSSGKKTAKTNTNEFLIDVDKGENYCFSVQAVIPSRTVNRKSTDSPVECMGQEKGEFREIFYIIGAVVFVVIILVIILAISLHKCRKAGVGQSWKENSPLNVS

For `NCCCC(O)(P(=O)(O)O)P(=O)(O)O` [alendronic acid], which TF antagonist activity is on record?
Its TF antagonist activity is “effective TF antagonist”.
